Measured values as given in patent publication US20190029987A1, “DIMETHYL FUMARATE (DMF) FOR PREVENTION OR TREATMENT OF GOUT, ACNE, DIABETES, VITILIGO AND/OR PYODERMA GANGRENOSUM” (UNIVERSITAT ZURICH, priority 2016, published 2019).
Peptide text beside a SMILES is read from it. * marks the point of attachment. Cbz = O=C(OCc1ccccc1)*

How the values were obtained:
[1] = system: Nrf2; assay: Nigericin-induced Nrf2 degradation in THP-1 cells (Western blot); format: cell-based, human; settings: THP-1, nigericin 5 μM, 1 μM added after 1 h, harvested after 2.5 h, FIG. 4I
Source text: Next, the inventors investigated the activity of Nrf2 upon activation of the NLRP3 inflammasome, since inflammasome activation is ROS-dependent. […] This is surprising, since UVB irradiation is a strong inducer of ROS production and it can be anticipated that the cells would benefit from Nrf2 activation. UVB-induced secretion by HPKs requires expression of NLRP1 and NLRP3 [21]. Both nigericin and MSU crystals are considered as “true” NLRP3 activators, but HPKs cannot phagocytose MSU crystals. Therefore, the inventors treated HPKs with nigericin only and THP-1 cells with either of these NLRP3 activators. […] Therefore, NLRP3 inflammasome activation most likely induces Nrf2 protein degradation. […]
(A-C) HPKs were irradiated with (A) UVB or treated with (B) nigericin (5 μM) and cells and supernatants were harvested at different time points as indicated. […] (C) Expression of Nrf2 and Nrf2 target genes was determined by qRT-PCR. […] Cells and supernatants were harvested at different time points as indicated and analysed for (D) expression and activation of the proteins as indicated by Western blot and (E) expression of Nrf2 and Nrf2 target genes by qRT-PCR. […] Cells were harvested after 1 h or 5 h, and lysates were analysed for the expression of the indicated proteins by Western blot. […] (G) Nrf2 expression related to the indicated background band was quantified from the Western blot. […]

[2] = system: Nrf2; assay: UVB-induced Nrf2 degradation in HPKs (Western blot); format: cell-based, human; settings: 1 μM for 10 min, harvested after 1 h, FIG. 7D
Source text: Next, the inventors investigated the activity of Nrf2 upon activation of the NLRP3 inflammasome, since inflammasome activation is ROS-dependent. […] This is surprising, since UVB irradiation is a strong inducer of ROS production and it can be anticipated that the cells would benefit from Nrf2 activation. UVB-induced secretion by HPKs requires expression of NLRP1 and NLRP3 [21]. Both nigericin and MSU crystals are considered as “true” NLRP3 activators, but HPKs cannot phagocytose MSU crystals. Therefore, the inventors treated HPKs with nigericin only and THP-1 cells with either of these NLRP3 activators. […] Therefore, NLRP3 inflammasome activation most likely induces Nrf2 protein degradation. […] However, inflammasome activation-induced Nrf2 degradation was blocked upon ablation of ASC or NLRP3 expression (FIG. 4G) and upon treatment of cells with the ROS blocker PDTC or the Ca2+ chelator BAPTA-AM (Supplementary FIG. 2D). […] However, inflammasome function was not impaired, as reflected by normal processing of pro-IL-18 (FIG. 4H). Although Keap1 expression is partially dispensable for Nrf2 degradation by inflammasome activation, the transcription factor is directed to the proteasome under these conditions, since Nrf2 degradation was inhibited by the proteasome inhibitor MG132 (FIG. 4I and FIG. 7D).
FIG. 7: (A-C) HPKs were transfected with siRNAs for 3 d as indicated. Scrambled (scr) siRNA and siRNA targeting the unrelated vascular endothelial growth factor (VEGF) served as controls. Western blots of (A) total lysates or (B) nuclear and cytoplasmic lysates and (C) qRT-PCR for expression of target gene expression. (D) HPKs were treated with MG132 (1 μM), PDTC (500 μM) or BAPTA-AM (12.5 μM) for 10 min and harvested (before UV) or irradiated with UVB and harvested after 1 h. Western blots showing expression of Nrf2. (E) Differentiated and primed THP-1 cells were pretreated with cycloheximide (CHX, 30 μg/ml) for 1 h before priming cells with upLPS overnight. Western blots show expression of the indicated proteins. […] Statistics: (C) Mann-Whitney test, related to scr control. *P≤0.05

CC(C)C[C@@H](C=O)NC(=O)[C@H](CC(C)C)NC(=O)[C@H](CC(C)C)NC(=O)OCc1ccccc1 [MG132] (Cbz-Leu-Leu-Leu-aldehyde)
inflammasome activation-induced Nrf2 degradation [1]: inhibited
inflammasome activation-induced Nrf2 degradation [2]: inhibited
